Among the data in PubChem BioAssay (NCI) are GI50 and TGI values, retold here.

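Cells were grown in 96-well plates and exposed to each compound for 48 hours at five concentrations; endpoints were interpolated linearly between bracketing concentrations, or set to the highest concentration if not reached. The concentration for 50% growth inhibition is given as GI50. TGI: concentration producing complete growth inhibition.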 A value given as a limit tells only on which side of the number the result lay.

Test systems include NCI-H460 lung; SN12C renal; MALME-3M melanoma; RPMI-8226 leukemia; TK-10 renal; UO-31 renal; COLO 205 colon; EKVX NSCLC; CAKI-1 renal; OVCAR-8 ovarian.
Holding throughout (assay): inhibition of tumour cell growth, NCI panel, 48 h

`COc1cc(O)c([C@@H]2C[C@H](CCc3ccc(O)cc3)O[C@H](c3ccc(O)cc3)C2)c(O)c1C(=O)/C=C/c1ccc(O)cc1`: the GI50 is 2.71 µM with NCI-H460 lung; 3.23 µM in the assay on SN12C renal; 3.39 µM in the assay on MALME-3M melanoma; 2.11 µM in the assay with RPMI-8226 leukemia; 3.94 µM in the assay with TK-10 renal; 2.9 µM in the assay with UO-31 renal. For the same compound, the GI50 in the assay with COLO 205 colon was 2.51 µM; in the assay on EKVX NSCLC, 4.1 µM; with CAKI-1 renal, 5.76 µM; in the assay on OVCAR-8 ovarian it was 3.17 µM. For the same compound, the TGI is 7.49 µM in the assay with NCI-H460 lung; 13.8 µM with SN12C renal; above 30.8 µM in the assay with MALME-3M melanoma; 4.68 µM in the assay on RPMI-8226 leukemia; 13.5 µM with TK-10 renal; 7.96 µM in the assay on UO-31 renal. For the same compound, the TGI with COLO 205 colon turned out to be 5.4 µM; with EKVX NSCLC, 16.7 µM; in the assay with CAKI-1 renal, 18.3 µM; in the assay with OVCAR-8 ovarian, 10.5 µM.
In the case of `COc1nc(N(C)O)nc(N(C)O)n1`, the GI50 with NCI-H460 lung is 0.454 µM; in the assay on SN12C renal it was 2.25 µM; with MALME-3M melanoma, 2.22 µM; with RPMI-8226 leukemia it was 1.32 µM; in the assay with TK-10 renal it was 1.97 µM; in the assay with UO-31 renal, 1.13 µM. Further, the GI50 is 1.24 µM in the assay on COLO 205 colon, 1.56 µM in the assay with EKVX NSCLC, 0.491 µM in the assay on CAKI-1 renal and 2.48 µM with OVCAR-8 ovarian. In addition, the TGI with NCI-H460 lung is 8.62 µM; with SN12C renal, above 100 µM; with MALME-3M melanoma, 24 µM; in the assay on RPMI-8226 leukemia it was above 100 µM; with TK-10 renal, above 100 µM; in the assay on UO-31 renal it was above 100 µM. Further, the TGI with COLO 205 colon is above 100 µM; in the assay on EKVX NSCLC it was above 100 µM; in the assay with CAKI-1 renal, 17.3 µM; in the assay with OVCAR-8 ovarian, above 100 µM.
As for `CCOc1cc2ncc(C#N)c(Nc3ccc(OCc4cccc(F)c4)c(Cl)c3)c2cc1NC(=O)CC1CCSS1` (stereo not given), the GI50 in the assay on NCI-H460 lung is 0.465 µM; with SN12C renal, above 6.3 µM; in the assay with MALME-3M melanoma, above 22.3 µM; in the assay with RPMI-8226 leukemia, above 25 µM; in the assay with TK-10 renal it was 0.916 µM; with UO-31 renal it was 1.04 µM. The GI50 in the assay on COLO 205 colon was 2.39 µM; in the assay with EKVX NSCLC it was 0.74 µM; with CAKI-1 renal, 1.77 µM; in the assay on OVCAR-8 ovarian, 6.36 µM. For the same compound, the TGI in the assay on NCI-H460 lung is 0.948 µM; in the assay with SN12C renal, above 25 µM; in the assay with MALME-3M melanoma, above 25 µM; with RPMI-8226 leukemia, above 25 µM; in the assay with TK-10 renal, 6 µM; in the assay on UO-31 renal, above 25 µM. In addition, the TGI in the assay on COLO 205 colon is above 25 µM; in the assay on EKVX NSCLC, above 14.3 µM; in the assay on CAKI-1 renal, above 25 µM; with OVCAR-8 ovarian, above 25 µM.
For the compound `N=C1C(c2nc(-c3ccc(Br)cc3)cs2)=C(O)CN1Cc1cccnc1`, the GI50 with NCI-H460 lung was 12.3 µM; in the assay with SN12C renal it was 26.8 µM; in the assay with MALME-3M melanoma, 14.6 µM; in the assay on RPMI-8226 leukemia it was 2.88 µM; in the assay with TK-10 renal, 2.23 µM; in the assay on UO-31 renal, 19.7 µM. In addition, the GI50 was 11.9 µM with COLO 205 colon, 56.6 µM with EKVX NSCLC, 35 µM in the assay with CAKI-1 renal and 28.8 µM in the assay on OVCAR-8 ovarian. Moreover, the TGI with NCI-H460 lung was above 100 µM; with SN12C renal, above 100 µM; with MALME-3M melanoma it was above 100 µM; in the assay on RPMI-8226 leukemia it was 76.5 µM; with TK-10 renal, 45.3 µM; in the assay with UO-31 renal it was above 100 µM. Besides, the TGI is 38.4 µM in the assay on COLO 205 colon, above 100 µM in the assay on EKVX NSCLC, above 100 µM in the assay on CAKI-1 renal and above 100 µM in the assay with OVCAR-8 ovarian.
Regarding `COc1cc(/C(C#N)=C/c2ccc3c(c2OC)OCO3)cc2c1OCO2`, the GI50 was 0.0452 µM in the assay with NCI-H460 lung; 0.695 µM with SN12C renal; 0.264 µM with MALME-3M melanoma; 0.146 µM in the assay on RPMI-8226 leukemia; 0.982 µM in the assay with TK-10 renal; 2.09 µM in the assay with UO-31 renal. Besides, the GI50 was 0.0941 µM with COLO 205 colon, 0.652 µM in the assay with EKVX NSCLC, 0.0933 µM in the assay on CAKI-1 renal and 0.243 µM with OVCAR-8 ovarian. Further, the TGI was 14.2 µM in the assay with NCI-H460 lung; above 100 µM in the assay with SN12C renal; 41.1 µM with MALME-3M melanoma; 33.2 µM in the assay with RPMI-8226 leukemia; 37.2 µM in the assay with TK-10 renal; above 100 µM in the assay with UO-31 renal. The TGI was 3.14 µM in the assay on COLO 205 colon, above 100 µM in the assay on EKVX NSCLC, above 100 µM with CAKI-1 renal and above 60.9 µM in the assay with OVCAR-8 ovarian.
Regarding `COc1cc(CCc2ccc(OCCN(C)C)cc2)cc(OC)c1OC`, the TGI in the assay with NCI-H460 lung, with SN12C renal, in the assay on MALME-3M melanoma, in the assay with RPMI-8226 leukemia, with TK-10 renal and in the assay on UO-31 renal was above 100 µM each time. For the same compound, the TGI in the assay on COLO 205 colon is 38.9 µM; with EKVX NSCLC, above 100 µM; in the assay with CAKI-1 renal, above 100 µM; in the assay with OVCAR-8 ovarian, above 100 µM.
Take `COc1ccc2cc(C(=O)/C=C/c3cc(OC)c(OC)c(OC)c3)ccc2c1`: the GI50 in the assay on NCI-H460 lung was 1.27 µM; with SN12C renal, 1.73 µM; in the assay with MALME-3M melanoma, 11 µM; in the assay with RPMI-8226 leukemia, 6.84 µM; with TK-10 renal it was 9.61 µM; with UO-31 renal, 7.44 µM. In addition, the GI50 with COLO 205 colon is 13.7 µM; with EKVX NSCLC it was 4.05 µM; with CAKI-1 renal, 3.41 µM; in the assay on OVCAR-8 ovarian it was 2.01 µM. Further, the TGI in the assay on NCI-H460 lung is 5.73 µM; in the assay with SN12C renal, 8.78 µM; with MALME-3M melanoma, 25.8 µM; with RPMI-8226 leukemia it was above 50 µM; in the assay on TK-10 renal it was 31.4 µM; in the assay with UO-31 renal, 15.5 µM. Besides, the TGI with COLO 205 colon was above 50 µM; in the assay on EKVX NSCLC it was 29.5 µM; with CAKI-1 renal it was 28.3 µM; in the assay on OVCAR-8 ovarian, above 50 µM.
